Reference: PMC11907390, “Proteome‐Wide Profiling of Olaparib Interactors Using a Biotinylated Photoaffinity Probe” (Chembiochem, 2025)

Columns and labels:
[1] = biological target: PARP1 (Homo sapiens, UniProt P09874); test: PARP1 activity assay (Figure S6); also photoaffinity pull-down from HeLa lysate with MS and Western blot; format: biochemical
[2] = biological target: CDK8 (Homo sapiens, UniProt P49336); test: photoaffinity labeling, streptavidin pull-down and MS in HeLa lysate, enriched over probe […] in two biological replicates; format: cell-based
Sequence of CDK8 (P49336 whole entry): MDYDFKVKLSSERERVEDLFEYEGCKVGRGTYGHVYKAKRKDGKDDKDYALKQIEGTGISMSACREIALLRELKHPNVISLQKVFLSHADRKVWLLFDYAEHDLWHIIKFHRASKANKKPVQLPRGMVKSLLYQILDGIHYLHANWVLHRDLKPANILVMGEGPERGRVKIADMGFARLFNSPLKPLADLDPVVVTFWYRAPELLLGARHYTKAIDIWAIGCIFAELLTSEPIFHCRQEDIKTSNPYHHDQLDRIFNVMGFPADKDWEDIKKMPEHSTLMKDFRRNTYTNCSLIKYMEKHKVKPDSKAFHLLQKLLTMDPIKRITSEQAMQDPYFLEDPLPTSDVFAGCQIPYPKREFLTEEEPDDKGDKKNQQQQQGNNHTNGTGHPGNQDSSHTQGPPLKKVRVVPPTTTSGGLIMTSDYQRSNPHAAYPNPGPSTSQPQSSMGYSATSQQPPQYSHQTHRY

[3] = biological target: PARP4 (Homo sapiens, UniProt Q9UKK3); test: competition of probe […] photoaffinity pull-down in HeLa lysate by unlabeled olaparib ([…]), MS; format: cell-based
Sequence of PARP4 (Q9UKK3 whole entry): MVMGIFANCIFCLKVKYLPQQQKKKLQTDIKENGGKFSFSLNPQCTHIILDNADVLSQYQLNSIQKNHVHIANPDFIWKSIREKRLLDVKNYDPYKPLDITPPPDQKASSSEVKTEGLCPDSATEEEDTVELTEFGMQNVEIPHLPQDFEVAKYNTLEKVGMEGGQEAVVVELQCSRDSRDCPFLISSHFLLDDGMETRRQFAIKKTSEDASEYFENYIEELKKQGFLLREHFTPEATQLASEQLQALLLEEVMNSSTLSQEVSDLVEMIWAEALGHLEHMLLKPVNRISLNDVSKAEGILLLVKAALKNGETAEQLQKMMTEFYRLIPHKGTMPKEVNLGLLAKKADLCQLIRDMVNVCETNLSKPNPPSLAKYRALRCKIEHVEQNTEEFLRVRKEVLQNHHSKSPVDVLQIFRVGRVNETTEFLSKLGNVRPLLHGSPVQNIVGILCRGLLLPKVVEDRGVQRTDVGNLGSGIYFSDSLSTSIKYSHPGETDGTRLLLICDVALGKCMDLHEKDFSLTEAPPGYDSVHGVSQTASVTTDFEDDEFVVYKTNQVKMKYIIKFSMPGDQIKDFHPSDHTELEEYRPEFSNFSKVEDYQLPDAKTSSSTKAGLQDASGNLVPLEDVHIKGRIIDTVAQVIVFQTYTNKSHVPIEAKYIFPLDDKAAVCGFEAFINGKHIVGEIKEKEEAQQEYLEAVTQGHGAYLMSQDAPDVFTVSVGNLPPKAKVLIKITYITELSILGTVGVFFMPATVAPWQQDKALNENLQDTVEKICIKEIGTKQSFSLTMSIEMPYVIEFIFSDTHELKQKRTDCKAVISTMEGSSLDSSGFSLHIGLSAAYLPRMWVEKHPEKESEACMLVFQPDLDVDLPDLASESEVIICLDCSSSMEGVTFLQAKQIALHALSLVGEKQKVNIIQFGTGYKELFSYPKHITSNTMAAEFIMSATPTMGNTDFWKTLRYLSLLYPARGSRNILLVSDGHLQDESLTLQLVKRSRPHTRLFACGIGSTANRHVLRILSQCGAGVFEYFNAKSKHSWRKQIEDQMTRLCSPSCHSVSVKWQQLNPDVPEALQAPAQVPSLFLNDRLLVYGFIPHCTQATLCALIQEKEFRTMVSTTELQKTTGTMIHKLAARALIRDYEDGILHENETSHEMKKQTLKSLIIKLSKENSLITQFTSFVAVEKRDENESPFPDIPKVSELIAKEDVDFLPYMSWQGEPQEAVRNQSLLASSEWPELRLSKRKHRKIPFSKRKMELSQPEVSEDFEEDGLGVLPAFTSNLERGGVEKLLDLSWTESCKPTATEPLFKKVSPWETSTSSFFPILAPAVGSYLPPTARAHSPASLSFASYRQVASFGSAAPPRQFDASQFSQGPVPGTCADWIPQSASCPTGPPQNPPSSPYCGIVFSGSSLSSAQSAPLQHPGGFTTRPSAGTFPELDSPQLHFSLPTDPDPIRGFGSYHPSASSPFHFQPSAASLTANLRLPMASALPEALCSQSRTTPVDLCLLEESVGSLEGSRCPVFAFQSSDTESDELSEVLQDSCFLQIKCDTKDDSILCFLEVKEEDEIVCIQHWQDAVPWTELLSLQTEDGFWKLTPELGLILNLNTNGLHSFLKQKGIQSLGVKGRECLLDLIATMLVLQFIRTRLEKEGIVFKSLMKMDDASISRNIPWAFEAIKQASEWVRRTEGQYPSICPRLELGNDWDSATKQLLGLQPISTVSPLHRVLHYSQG

Sequence of PARP1 (P09874 2-1014): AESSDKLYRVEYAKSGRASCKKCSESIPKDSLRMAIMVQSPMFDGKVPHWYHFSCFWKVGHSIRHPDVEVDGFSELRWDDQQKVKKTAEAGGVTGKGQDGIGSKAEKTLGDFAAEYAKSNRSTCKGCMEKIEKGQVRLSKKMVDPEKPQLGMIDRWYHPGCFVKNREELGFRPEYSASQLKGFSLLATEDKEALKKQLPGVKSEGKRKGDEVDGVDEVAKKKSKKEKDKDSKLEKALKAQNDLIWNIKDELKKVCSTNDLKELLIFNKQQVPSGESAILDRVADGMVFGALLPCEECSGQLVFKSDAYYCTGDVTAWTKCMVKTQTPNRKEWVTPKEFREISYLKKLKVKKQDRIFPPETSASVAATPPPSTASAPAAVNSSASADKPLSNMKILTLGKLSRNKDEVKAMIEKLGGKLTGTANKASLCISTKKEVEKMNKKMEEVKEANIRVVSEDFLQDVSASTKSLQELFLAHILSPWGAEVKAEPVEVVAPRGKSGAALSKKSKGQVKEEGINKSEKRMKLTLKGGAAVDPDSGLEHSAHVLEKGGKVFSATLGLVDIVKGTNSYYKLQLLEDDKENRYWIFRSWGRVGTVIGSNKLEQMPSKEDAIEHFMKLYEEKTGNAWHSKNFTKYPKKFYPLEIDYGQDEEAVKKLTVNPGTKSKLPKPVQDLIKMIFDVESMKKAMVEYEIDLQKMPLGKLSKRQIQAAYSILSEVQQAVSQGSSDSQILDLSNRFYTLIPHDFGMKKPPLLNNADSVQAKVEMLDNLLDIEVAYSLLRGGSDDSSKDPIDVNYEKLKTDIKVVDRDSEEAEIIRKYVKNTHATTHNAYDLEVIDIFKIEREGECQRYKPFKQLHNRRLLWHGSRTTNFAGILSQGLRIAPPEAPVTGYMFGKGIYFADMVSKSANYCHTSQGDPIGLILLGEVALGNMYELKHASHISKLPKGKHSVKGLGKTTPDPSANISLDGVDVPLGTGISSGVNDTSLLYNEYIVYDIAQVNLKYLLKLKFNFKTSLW

SMILES: O=C(CCCC[C@@H]1SC[C@@H]2NC(=O)N[C@@H]21)NCCOCCOCCOCCn1cc(CCCCC2(CCC(=O)N3CCN(C(=O)c4cc(Cc5n[nH]c(=O)c6ccccc56)ccc4F)CC3)N=N2)nn1 [compound 4, probe 4]
- IC50 [1]: 3.8 µM
- photoaffinity labeling, streptavidin pull-down and MS in HeLa lysate, enriched o [2]: CDK8 and its paralogue CDK19, both transcriptional regulators, were identified in our screening as direct olaparib interactors

SMILES: O=C(c1cc(Cc2n[nH]c(=O)c3ccccc23)ccc1F)N1CCN(C(=O)C2CC2)CC1 [olaparib]
- competition of probe 4 photoaffinity pull-down in HeLa lysate by unlabeled olapa [3]: This concentration‐dependent competition demonstrates the specificity of these interactions for the olaparib pharmacophore
